Laboratory results taken from the supplement of paper PMC10307832.

Key:
Assay in all cases: relative viability (nuclei count vs DMSO), 5 days (fraction); higher = more cells survive
COR-L23 = test system: COR-L23
Method in brief: (§1)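 Five library-drug doses in √10 steps were combined with a fixed anchor-drug dose, or a single drug was given alone, by pin tool to lung cancer cell lines in 1536-well plates the day after seeding. Nuclei were stained and counted after 5 days. Relative viability is the nuclei count in treated wells over that in vehicle wells, taken as the median of duplicate plates.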

NCI-H1437 = test system: NCI-H1437
Method in brief: as §1

ChaGo-K-1 = test system: ChaGo-K-1
Method in brief: as §1

SK-MES-1 = test system: SK-MES-1
Method in brief: as §1

SW 1573 = test system: SW 1573
Method in brief: as §1

NCI-H1648 = test system: NCI-H1648
Method in brief: as §1

NCI-H1651 = test system: NCI-H1651
Method in brief: as §1

ABC-1 = test system: ABC-1
Method in brief: as §1

`Cc1sc2c(c1C)C(c1ccc(Cl)cc1)=N[C@@H](CC(=O)OC(C)(C)C)c1nnc(C)n1-2` [JQ1] + Nc1nc2[nH]cc(CCc3ccc(C(=O)N[C@@H](CCC(=O)O)C(=O)O)cc3)c2c(=O)[nH]1 [Pemetrexed] (partner 0.2 µM) showed a relative viability (COR-L23; first compound 0.04 µM) of 0.21, a relative viability (COR-L23; first compound 0.1265 µM) of 0.214 and a relative viability (COR-L23; first compound 0.4 µM) of 0.196. It also gave a relative viability (COR-L23; first compound 1.265 µM) of 0.159, a relative viability (COR-L23; first compound 4 µM) of 0.147 and a relative viability (NCI-H1437; first compound 0.04 µM) of 0.303. It also gave a relative viability (NCI-H1437; first compound 0.1265 µM) of 0.309, a relative viability (NCI-H1437; first compound 0.4 µM) of 0.244 and a relative viability (NCI-H1437; first compound 1.265 µM) of 0.201. The relative viability (NCI-H1437; first compound 4 µM) was 0.208, the relative viability (ChaGo-K-1; first compound 0.04 µM) was 0.25 and the relative viability (ChaGo-K-1; first compound 0.1265 µM) was 0.256. The relative viability (ChaGo-K-1; first compound 0.4 µM) was 0.245, the relative viability (ChaGo-K-1; first compound 1.265 µM) was 0.252 and the relative viability (ChaGo-K-1; first compound 4 µM) was 0.243. It also gave a relative viability (SK-MES-1; first compound 0.04 µM) of 0.967, a relative viability (SK-MES-1; first compound 0.1265 µM) of 0.686 and a relative viability (SK-MES-1; first compound 0.4 µM) of 0.397. For the same molecule, the relative viability (SK-MES-1; first compound 1.265 µM) was 0.289, the relative viability (SK-MES-1; first compound 4 µM) was 0.235 and the relative viability (SW 1573; first compound 0.04 µM) was 0.826. It also gave a relative viability (SW 1573; first compound 0.1265 µM) of 0.789, a relative viability (SW 1573; first compound 0.4 µM) of 0.598 and a relative viability (SW 1573; first compound 1.265 µM) of 0.398. It also gave a relative viability (SW 1573; first compound 4 µM) of 0.295, a relative viability (NCI-H1648; first compound 0.04 µM) of 0.726 and a relative viability (NCI-H1648; first compound 0.1265 µM) of 0.817. The relative viability (NCI-H1648; first compound 0.4 µM) was 0.683, the relative viability (NCI-H1648; first compound 1.265 µM) was 0.54 and the relative viability (NCI-H1648; first compound 4 µM) was 0.258. The relative viability (NCI-H1651; first compound 0.04 µM) was 0.589, the relative viability (NCI-H1651; first compound 0.1265 µM) was 0.45 and the relative viability (NCI-H1651; first compound 0.4 µM) was 0.391. It also gave a relative viability (NCI-H1651; first compound 1.265 µM) of 0.458 and a relative viability (NCI-H1651; first compound 4 µM) of 0.358.
For `COc1cc2nccc(Oc3ccc(NC(=O)Nc4cc(C)on4)c(Cl)c3)c2cc1OC` [Tivozanib] + CC(=O)c1c(C)c2cnc(Nc3ccc(N4CCNCC4)cn3)nc2n(C2CCCC2)c1=O [Palbociclib] (partner 0.5 µM), the relative viability (COR-L23; first compound 0.005 µM) was 0.246, the relative viability (COR-L23; first compound 0.01581 µM) was 0.294 and the relative viability (COR-L23; first compound 0.05 µM) was 0.319. For the same molecule, the relative viability (COR-L23; first compound 0.1581 µM) was 0.282, the relative viability (COR-L23; first compound 0.5 µM) was 0.213 and the relative viability (NCI-H1437; first compound 0.005 µM) was 0.364. It also gave a relative viability (NCI-H1437; first compound 0.01581 µM) of 0.344, a relative viability (NCI-H1437; first compound 0.05 µM) of 0.286 and a relative viability (NCI-H1437; first compound 0.1581 µM) of 0.368. The relative viability (NCI-H1437; first compound 0.5 µM) was 0.26, the relative viability (ChaGo-K-1; first compound 0.005 µM) was 0.879 and the relative viability (ChaGo-K-1; first compound 0.01581 µM) was 0.916. It also gave a relative viability (ChaGo-K-1; first compound 0.05 µM) of 0.898, a relative viability (ChaGo-K-1; first compound 0.1581 µM) of 0.947 and a relative viability (ChaGo-K-1; first compound 0.5 µM) of 0.886. For the same molecule, the relative viability (ABC-1; first compound 0.005 µM) was 0.638, the relative viability (ABC-1; first compound 0.01581 µM) was 0.732 and the relative viability (ABC-1; first compound 0.05 µM) was 0.562. For the same molecule, the relative viability (ABC-1; first compound 0.1581 µM) was 0.511, the relative viability (ABC-1; first compound 0.5 µM) was 0.437 and the relative viability (SK-MES-1; first compound 0.005 µM) was 0.306. For the same molecule, the relative viability (SK-MES-1; first compound 0.01581 µM) was 0.345, the relative viability (SK-MES-1; first compound 0.05 µM) was 0.365 and the relative viability (SK-MES-1; first compound 0.1581 µM) was 0.326. It also gave a relative viability (SK-MES-1; first compound 0.5 µM) of 0.376, a relative viability (SW 1573; first compound 0.005 µM) of 0.344 and a relative viability (SW 1573; first compound 0.01581 µM) of 0.412. For the same molecule, the relative viability (SW 1573; first compound 0.05 µM) was 0.418, the relative viability (SW 1573; first compound 0.1581 µM) was 0.391 and the relative viability (SW 1573; first compound 0.5 µM) was 0.344. It also gave a relative viability (NCI-H1648; first compound 0.005 µM) of 0.31, a relative viability (NCI-H1648; first compound 0.01581 µM) of 0.272 and a relative viability (NCI-H1648; first compound 0.05 µM) of 0.269. The relative viability (NCI-H1648; first compound 0.1581 µM) was 0.244, the relative viability (NCI-H1648; first compound 0.5 µM) was 0.231 and the relative viability (NCI-H1651; first compound 0.005 µM) was 0.524. It also gave a relative viability (NCI-H1651; first compound 0.01581 µM) of 0.516, a relative viability (NCI-H1651; first compound 0.05 µM) of 0.522 and a relative viability (NCI-H1651; first compound 0.1581 µM) of 0.547. It also gave a relative viability (NCI-H1651; first compound 0.5 µM) of 0.543.
Work on `COc1cc2nccc(Oc3ccc(NC(=O)Nc4cc(C)on4)c(Cl)c3)c2cc1OC` [Tivozanib] + Nc1nc2[nH]cc(CCc3ccc(C(=O)N[C@@H](CCC(=O)O)C(=O)O)cc3)c2c(=O)[nH]1 [Pemetrexed] (partner 0.2 µM) yielded a relative viability (COR-L23; first compound 0.005 µM) of 0.193, a relative viability (COR-L23; first compound 0.01581 µM) of 0.192 and a relative viability (COR-L23; first compound 0.05 µM) of 0.203. The relative viability (COR-L23; first compound 0.1581 µM) was 0.206, the relative viability (COR-L23; first compound 0.5 µM) was 0.199 and the relative viability (NCI-H1437; first compound 0.005 µM) was 0.251. The relative viability (NCI-H1437; first compound 0.01581 µM) was 0.287, the relative viability (NCI-H1437; first compound 0.05 µM) was 0.366 and the relative viability (NCI-H1437; first compound 0.1581 µM) was 0.313. For the same molecule, the relative viability (NCI-H1437; first compound 0.5 µM) was 0.31, the relative viability (ChaGo-K-1; first compound 0.005 µM) was 0.235 and the relative viability (ChaGo-K-1; first compound 0.01581 µM) was 0.271. For the same molecule, the relative viability (ChaGo-K-1; first compound 0.05 µM) was 0.253, the relative viability (ChaGo-K-1; first compound 0.1581 µM) was 0.273 and the relative viability (ChaGo-K-1; first compound 0.5 µM) was 0.264. It also gave a relative viability (SK-MES-1; first compound 0.005 µM) of 0.89, a relative viability (SK-MES-1; first compound 0.01581 µM) of 0.956 and a relative viability (SK-MES-1; first compound 0.05 µM) of 1.13. The relative viability (SK-MES-1; first compound 0.1581 µM) was 0.948, the relative viability (SK-MES-1; first compound 0.5 µM) was 0.994 and the relative viability (SW 1573; first compound 0.005 µM) was 0.761. The relative viability (SW 1573; first compound 0.01581 µM) was 0.766, the relative viability (SW 1573; first compound 0.05 µM) was 0.805 and the relative viability (SW 1573; first compound 0.1581 µM) was 0.666. The relative viability (SW 1573; first compound 0.5 µM) was 0.775, the relative viability (NCI-H1648; first compound 0.005 µM) was 0.723 and the relative viability (NCI-H1648; first compound 0.01581 µM) was 0.704. The relative viability (NCI-H1648; first compound 0.05 µM) was 0.778, the relative viability (NCI-H1648; first compound 0.1581 µM) was 0.652 and the relative viability (NCI-H1648; first compound 0.5 µM) was 0.546. The relative viability (NCI-H1651; first compound 0.005 µM) was 0.54, the relative viability (NCI-H1651; first compound 0.01581 µM) was 0.52 and the relative viability (NCI-H1651; first compound 0.05 µM) was 0.683. The relative viability (NCI-H1651; first compound 0.1581 µM) was 0.421 and the relative viability (NCI-H1651; first compound 0.5 µM) was 0.574.
